Values after ≈ are worked out from the molar mass of the structure shown. Active and inactive are the calls of the source. The rule behind the calls is not given here. A value given as a limit tells only on which side of the number the result lay.

The CC50 is the concentration giving 50% cytotoxicity. A high value points to better tolerance by the cells. As usually defined, the bioavailability is the share of a dose that reaches the circulation, judged against a reference dose that is usually intravenous. Higher therefore signals much systemic uptake. The term solubility denotes the dissolved amount per volume that the medium holds. The low end stands for a poorly soluble substance, the high end for a readily soluble substance. The microsomal CLint is the capacity of the preparation to metabolise the compound, expressed as a volume cleared per time. A word on the IC50: it is the midpoint of a concentration-inhibition curve.

The test system of one data set is A549. Put plainly: Antiproliferative activity against human P53 expressing A549 cells after 72 hrs by celltiter-blue cell viability assay. Type of data set: functional. The note with it: A549, 72 h.
Data set [1] is described as follows: Oral bioavailability in Sprague-Dawley rat at 3 mg/kg. Format: ADME, organism-based. The note with it: in vivo.
Data set [2] can be described thus: Terminal half life in Sprague-Dawley rat at 3 mg/kg, iv and 3 mg/kg, po. Type of data set: ADME, organism-based. The following applies: in vivo, read-out: beta t1/2 (converted).
Data set [3] in a line: Solubility in buffered aqueous solution at pH 4.1. Format: physicochemical.
A short description of data set [4]: Metabolic stability in dog liver microsomes assessed as intrinsic clearance at 1 uM after 90 mins. Type of data set: ADME, Canis lupus familiaris, Microsome. The note with it: liver microsomes. (Microsomes from liver hold many membrane-bound enzymes, among them those of drug oxidation.)
Another data set addresses Cytochrome P450 3A4 (Homo sapiens, UniProt P08684). Briefly: Inhibition of CYP3A4. Type of data set: ADME.
For data set [5], the system named is HCT-116. Put plainly: Antitumor activity against human HCT116 cells xenografted nude mouse assessed as reduction in tumor growth at […], ip administered once daily for 5 days per week. Type of data set: functional, organism-based.
The target of another data set is Histone deacetylase 5 (Homo sapiens, UniProt Q9UQL6). Briefly: Inhibition of wild type His-tagged HDAC5 catalytic domain T678-L1122 expressed in Escherichia coli.
Sequence of Histone deacetylase 5 (Q9UQL6 whole entry, the tested form may be a part): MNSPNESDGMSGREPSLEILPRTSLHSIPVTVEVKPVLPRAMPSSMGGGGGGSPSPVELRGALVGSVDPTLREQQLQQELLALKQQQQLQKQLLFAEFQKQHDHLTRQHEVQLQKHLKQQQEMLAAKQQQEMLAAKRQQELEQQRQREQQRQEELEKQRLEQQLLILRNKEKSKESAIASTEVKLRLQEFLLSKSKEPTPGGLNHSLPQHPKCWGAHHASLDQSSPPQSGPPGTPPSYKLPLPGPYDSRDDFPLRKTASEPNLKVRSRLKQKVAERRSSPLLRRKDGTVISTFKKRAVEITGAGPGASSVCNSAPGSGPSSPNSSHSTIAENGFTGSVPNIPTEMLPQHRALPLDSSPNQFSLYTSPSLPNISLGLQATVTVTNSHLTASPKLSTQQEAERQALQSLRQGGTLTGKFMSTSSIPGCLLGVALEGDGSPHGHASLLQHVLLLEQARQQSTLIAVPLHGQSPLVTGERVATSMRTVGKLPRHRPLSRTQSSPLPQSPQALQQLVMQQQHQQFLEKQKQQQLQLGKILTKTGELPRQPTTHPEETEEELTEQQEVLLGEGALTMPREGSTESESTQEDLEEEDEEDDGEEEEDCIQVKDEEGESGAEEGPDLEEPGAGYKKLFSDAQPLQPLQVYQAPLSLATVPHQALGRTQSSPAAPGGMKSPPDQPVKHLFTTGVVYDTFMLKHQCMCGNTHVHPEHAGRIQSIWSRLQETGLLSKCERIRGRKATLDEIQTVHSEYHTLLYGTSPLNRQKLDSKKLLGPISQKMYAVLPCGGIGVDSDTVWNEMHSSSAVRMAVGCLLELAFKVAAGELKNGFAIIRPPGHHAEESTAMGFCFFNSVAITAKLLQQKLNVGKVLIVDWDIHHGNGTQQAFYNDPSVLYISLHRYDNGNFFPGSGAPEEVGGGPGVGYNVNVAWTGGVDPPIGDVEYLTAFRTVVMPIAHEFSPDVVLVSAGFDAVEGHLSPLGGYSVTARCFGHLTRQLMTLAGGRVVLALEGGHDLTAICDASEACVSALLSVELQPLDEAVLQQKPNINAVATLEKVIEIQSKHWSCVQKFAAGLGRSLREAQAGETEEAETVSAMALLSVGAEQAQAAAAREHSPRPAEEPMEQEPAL
The next data set has as its target T1, Histone deacetylase 7 (Homo sapiens, UniProt Q8WUI4).
T1 sequence (Q8WUI4 whole entry): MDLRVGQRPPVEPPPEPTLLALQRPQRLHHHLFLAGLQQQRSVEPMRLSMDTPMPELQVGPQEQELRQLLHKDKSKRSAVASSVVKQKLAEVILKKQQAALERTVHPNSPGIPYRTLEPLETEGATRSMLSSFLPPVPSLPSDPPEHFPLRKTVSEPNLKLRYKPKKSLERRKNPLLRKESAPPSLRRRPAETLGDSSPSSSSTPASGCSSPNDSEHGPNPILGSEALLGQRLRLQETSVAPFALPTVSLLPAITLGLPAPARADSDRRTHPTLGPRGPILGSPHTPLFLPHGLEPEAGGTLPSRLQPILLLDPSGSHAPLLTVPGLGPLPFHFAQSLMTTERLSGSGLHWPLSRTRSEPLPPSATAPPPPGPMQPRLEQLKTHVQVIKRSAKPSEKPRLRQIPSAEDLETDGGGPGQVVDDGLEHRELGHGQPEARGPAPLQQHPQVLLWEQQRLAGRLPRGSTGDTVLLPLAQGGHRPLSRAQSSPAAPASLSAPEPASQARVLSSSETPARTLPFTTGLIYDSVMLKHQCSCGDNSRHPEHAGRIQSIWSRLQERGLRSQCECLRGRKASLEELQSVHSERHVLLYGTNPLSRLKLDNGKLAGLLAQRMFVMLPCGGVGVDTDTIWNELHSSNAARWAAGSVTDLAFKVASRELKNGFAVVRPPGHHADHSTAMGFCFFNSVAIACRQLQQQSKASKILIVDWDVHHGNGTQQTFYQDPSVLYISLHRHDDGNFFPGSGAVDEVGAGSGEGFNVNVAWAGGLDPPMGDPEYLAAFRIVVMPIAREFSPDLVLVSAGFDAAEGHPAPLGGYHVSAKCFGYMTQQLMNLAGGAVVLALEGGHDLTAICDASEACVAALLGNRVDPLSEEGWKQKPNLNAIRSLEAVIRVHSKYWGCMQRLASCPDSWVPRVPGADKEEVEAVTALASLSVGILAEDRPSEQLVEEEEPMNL
Briefly: Inhibition of wild type His-tagged HDAC7 catalytic domain T515-L952 expressed in Escherichia coli.

Data set [6] in a line: Terminal half life in Beagle dog at 1 mg/kg, iv and 2 mg/kg, po. Type of data set: ADME, organism-based, Canis lupus familiaris. The note with it: in vivo, read-out: beta t1/2 (converted).
A short description of data set [7]: Plasma concentration in Sprague-Dawley rat at 3 mg/kg, po after 24 hrs. Format: ADME, organism-based. Set-up: dose 3 mg/kg, route oral.
Data set [8] deals with HCT-116. Put plainly: Antiproliferative activity against human P53 expressing HCT116 cells after 72 hrs by celltiter-blue cell viability assay. Format: functional. The following applies: Homo sapiens, HCT-116, 72 h. A general note: Resazurin is reduced to fluorescent resorufin, in cell work by metabolically active cells.
Data set [9] concerns the target T2, Protein deacetylase HDAC6 (Homo sapiens, UniProt Q9UBN7).
T2 sequence (Q9UBN7 whole entry): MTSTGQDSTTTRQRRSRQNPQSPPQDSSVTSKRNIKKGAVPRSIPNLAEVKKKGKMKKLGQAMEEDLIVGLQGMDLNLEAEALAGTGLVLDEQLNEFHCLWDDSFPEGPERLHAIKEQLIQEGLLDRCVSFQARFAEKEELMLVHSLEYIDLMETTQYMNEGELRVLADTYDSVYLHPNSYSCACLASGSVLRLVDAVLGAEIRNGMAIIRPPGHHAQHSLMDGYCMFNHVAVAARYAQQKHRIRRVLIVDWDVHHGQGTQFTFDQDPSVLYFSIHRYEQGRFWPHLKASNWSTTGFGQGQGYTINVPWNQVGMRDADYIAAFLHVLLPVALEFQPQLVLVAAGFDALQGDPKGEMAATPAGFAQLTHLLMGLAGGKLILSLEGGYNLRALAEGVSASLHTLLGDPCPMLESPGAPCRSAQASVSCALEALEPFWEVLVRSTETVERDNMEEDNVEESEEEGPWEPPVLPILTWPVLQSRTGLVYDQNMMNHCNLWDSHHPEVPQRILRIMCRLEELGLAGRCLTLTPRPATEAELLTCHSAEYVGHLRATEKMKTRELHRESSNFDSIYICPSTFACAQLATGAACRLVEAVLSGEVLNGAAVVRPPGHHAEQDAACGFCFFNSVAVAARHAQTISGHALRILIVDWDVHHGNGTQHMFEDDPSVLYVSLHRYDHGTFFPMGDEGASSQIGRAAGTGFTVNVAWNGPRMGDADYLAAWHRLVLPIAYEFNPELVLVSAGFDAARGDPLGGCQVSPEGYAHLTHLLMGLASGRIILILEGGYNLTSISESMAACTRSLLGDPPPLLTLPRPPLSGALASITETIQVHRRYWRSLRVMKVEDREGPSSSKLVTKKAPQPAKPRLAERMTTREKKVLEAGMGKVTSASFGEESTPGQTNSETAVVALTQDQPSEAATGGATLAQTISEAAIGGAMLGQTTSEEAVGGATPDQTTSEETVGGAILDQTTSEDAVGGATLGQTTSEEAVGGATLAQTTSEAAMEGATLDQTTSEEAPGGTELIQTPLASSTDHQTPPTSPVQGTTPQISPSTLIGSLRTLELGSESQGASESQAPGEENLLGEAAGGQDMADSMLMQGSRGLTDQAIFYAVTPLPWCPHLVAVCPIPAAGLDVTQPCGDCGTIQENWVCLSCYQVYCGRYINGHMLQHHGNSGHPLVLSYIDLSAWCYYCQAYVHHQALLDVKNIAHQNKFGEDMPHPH
Description: Inhibition of C-terminal FLAG-tagged HDAC6 expressed in mammalian cells

In another data set the test system is G-401. Put plainly: Antiproliferative activity against human G401 cells after 72 hrs by celltiter-blue cell viability assay. The note with it: Homo sapiens, G-401, 72 h. Type of data set: functional.
Data set [10] in a line: Plasma concentration in Beagle dog at 2 mg/kg, po after 24 hrs. Type of data set: ADME, organism-based, Canis lupus familiaris. On the set-up: dose 2 mg/kg, route oral.
The test system of another data set is Mus musculus. Put plainly: Toxicity in BALB/c nu/nu mouse assessed as body weight loss at 10 mg/kg, ip administered once daily for 5 days per week. Format: organism-based. Set-up: dose 10 mg/kg, route intraperitoneal. The note with it: in vivo, 120 h.
The test system of the next data set is A2780. Put plainly: Antiproliferative activity against human A2780 cells after 72 hrs by celltiter-blue cell viability assay. Format: functional. The note with it: A2780, 72 h.

Sequence of Cytochrome P450 3A4 (P08684 whole entry): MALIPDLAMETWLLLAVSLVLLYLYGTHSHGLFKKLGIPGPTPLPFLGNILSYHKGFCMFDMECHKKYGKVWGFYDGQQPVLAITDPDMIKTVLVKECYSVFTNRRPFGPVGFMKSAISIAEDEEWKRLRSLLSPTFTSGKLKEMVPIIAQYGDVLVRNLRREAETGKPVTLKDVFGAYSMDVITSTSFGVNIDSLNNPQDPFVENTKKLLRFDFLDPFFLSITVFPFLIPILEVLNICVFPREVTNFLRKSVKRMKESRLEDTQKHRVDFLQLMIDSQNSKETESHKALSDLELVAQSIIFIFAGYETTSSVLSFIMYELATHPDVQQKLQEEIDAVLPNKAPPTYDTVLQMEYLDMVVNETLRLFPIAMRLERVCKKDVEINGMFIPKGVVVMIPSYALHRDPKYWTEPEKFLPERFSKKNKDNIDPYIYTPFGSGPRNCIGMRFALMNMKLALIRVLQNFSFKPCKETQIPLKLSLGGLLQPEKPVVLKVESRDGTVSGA

For the compound `CCC(=O)CCCCC[C@H](NC(=O)C1CN(C)C1)c1ncc(-c2cc3ccccc3nc2OC)[nH]1`, the CC50 stood at 490 nM in the data set with A549, 220 nM in the data set on HCT-116 [8], 370 nM in the data set on G-401 and 740 nM in the data set with A2780. Also, in data set [1], the bioavailability is 73%. Also, the half-life in [2] was 7 h; in data set [6] it was 14 h. The compound also came in with a solubility in data set [3] of 13 mg/mL (≈ 27.2 mM). The microsomal CLint at 1 µM in data set [4] is 29 µL/min/mg. Besides, the values for the Activity entry on Cytochrome P450 3A4 and with Mus musculus were “Not Active” and “Non-toxic”, respectively. In the data set with HCT-116 [5], the outcome was Active. Moreover, the IC50 was more than 10000 nM against Histone deacetylase 5, more than 10000 nM against Histone deacetylase 7 and 680000 nM in [9]. Besides, the concentration at 24 h in [7] and in data set [10] was more than 100 nM in each case.

These data come from ChEMBL document CHEMBL1136937, “Discovery of a potent class I selective ketone histone deacetylase inhibitor with antitumor activity in vivo and optimized pharmacokinetic properties” (J Med Chem, 2009).
